ChEMBL document CHEMBL4312014, “Nitrothiadiazolo[3,2-a]pyrimidines as promising antiglycating agents” (Eur J Med Chem, 2020)
Active and inactive are the calls of the source. The calls are words filed in the database; no cut-off is given here.

Experiments:
[1] = Anti-glycation activity assessed as inhibition of AGE formation by measuring decrease in glycated BSA protein level at 1000 uM incubated for 24 hrs in presence of glucose by fluorescence based assay relative to control; type: functional
[2] = Anti-glycation activity assessed as inhibition of AGE formation by measuring decrease in glycated BSA protein level at 100 uM incubated for 24 hrs in presence of glucose by fluorescence based assay relative to control; type: functional
[3] = Metal chelating activity assessed as inhibition of Cu2+ ion-induced oxidation of ascorbic acid compound treated with CuSO4.5H2O for 5 mins followed by ascorbate addition and measured immediately by spectrophotometric analysis
Rattus norvegicus [4] = assay: Ex vivo inhibition of DPP4 in Wistar rat serum assessed as p-nitroaniline formation at 10 mg/kg, po by incubating compound-treated serum with Gly-Pro-p-nitroanilide substrate and measured for 30 mins by microplate reader analysis; type: functional, organism-based
[5] = Anti-glycation activity assessed as inhibition of AGE formation by measuring decrease in glycated BSA protein level incubated for 24 hrs in presence of glucose by fluorescence based assay; type: functional
Dipeptidyl peptidase 4 [6] = target: T1, Dipeptidyl peptidase 4 (Homo sapiens, UniProt P27487); type: cell-free, Serum
Target sequence in this assay (P27487 whole entry): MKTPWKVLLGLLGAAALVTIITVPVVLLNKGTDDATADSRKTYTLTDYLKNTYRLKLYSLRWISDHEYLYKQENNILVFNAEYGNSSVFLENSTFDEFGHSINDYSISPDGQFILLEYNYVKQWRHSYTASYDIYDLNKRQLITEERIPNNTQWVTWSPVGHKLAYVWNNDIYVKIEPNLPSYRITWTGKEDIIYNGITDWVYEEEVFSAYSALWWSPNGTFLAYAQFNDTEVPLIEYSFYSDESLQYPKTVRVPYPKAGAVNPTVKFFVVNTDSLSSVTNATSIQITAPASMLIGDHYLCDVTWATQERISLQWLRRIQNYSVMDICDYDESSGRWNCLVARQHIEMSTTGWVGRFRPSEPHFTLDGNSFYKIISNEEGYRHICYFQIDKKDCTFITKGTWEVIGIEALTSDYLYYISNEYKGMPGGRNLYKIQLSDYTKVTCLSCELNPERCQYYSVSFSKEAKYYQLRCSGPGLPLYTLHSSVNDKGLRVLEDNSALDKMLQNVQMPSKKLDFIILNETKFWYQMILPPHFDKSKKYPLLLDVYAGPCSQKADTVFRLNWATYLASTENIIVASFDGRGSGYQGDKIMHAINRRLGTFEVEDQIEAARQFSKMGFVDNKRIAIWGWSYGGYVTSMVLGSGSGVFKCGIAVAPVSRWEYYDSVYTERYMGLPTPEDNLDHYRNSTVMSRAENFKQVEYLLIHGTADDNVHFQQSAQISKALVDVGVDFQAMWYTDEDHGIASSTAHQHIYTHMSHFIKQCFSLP

Dipeptidyl peptidase 4 [7] = target: T1, Dipeptidyl peptidase 4; settings: Serum, at 100 µM
Target sequence in this assay (P27487 whole entry, looked up): as the sequence (P27487 whole entry) above

Rattus norvegicus [8] = assay: Ex vivo inhibition of DPP4 in Wistar rat serum assessed as decrease in p-nitroaniline formation at 10 mg/kg, po by incubating 0 to 2 hrs compound-treated serum with Gly-Pro-p-nitroanilide substrate and measured for 30 mins by microplate reader analysis; type: functional, organism-based
Rattus norvegicus [9] = assay: Ex vivo inhibition of DPP4 in Wistar rat serum assessed as decrease in p-nitroaniline formation at 10 mg/kg, po by incubating 0 to 4 hrs compound-treated serum with Gly-Pro-p-nitroanilide substrate and measured for 30 mins by microplate reader analysis; type: functional, organism-based

Row | Compound | inhibition [1] [%] | inhibition [2] [%] | IC50 [3] [µM] | inhibition (Rattus norvegicus [4]) | IC50 [5] [µM] | IC50 (Dipeptidyl peptidase 4 [6]) [µM] | inhibition (Dipeptidyl peptidase 4 [7]) [%] | inhibition (Rattus norvegicus [8]) | inhibition (Rattus norvegicus [9])
1 | O=c1c([N+](=O)[O-])c(NCC(O)CO)nc2scnn12 (stereo not drawn) | 33.7 | 10.3 | > 200 | Active | – | – | – | – | –
2 | O=c1c([N+](=O)[O-])c(NCCCO)nc2scnn12 | 32.7 | 16.1 | > 200 | Active | – | – | – | – | –
3 | CCc1ccc(CCOc2ccc(CC3SC(=O)NC3=O)cc2)nc1 (stereo not drawn) [PIOGLITAZONE] | – | – | 44.1 | – | – | – | – | – | –
4 | CC(C)Nc1nc2scnn2c(=O)c1[N+](=O)[O-] | 69.6 | 30 | > 200 | Active | 325 | – | – | – | –
5 | O=C(O)CCCCC1CCSS1 (stereo not drawn) [LIPOIC ACID, ALPHA] | – | – | 68.9 | – | – | – | – | – | –
6 | N=C(N)NN [PIMAGEDINE] | 57.8 | 6 | > 1000 | – | 765 | – | – | – | –
7 | O=c1c([N+](=O)[O-])c(NCCc2ccc(O)cc2)nc2scnn12 | 76.8 | 43.8 | > 200 | Active | 167 | > 100 | 42.1 | – | –
8 | CC(=O)OCCNc1nc2scnn2c(=O)c1[N+](=O)[O-] | 50.8 | 44.8 | > 200 | Active | – | – | – | – | –
9 | CC(=O)OCCCCNc1nc2scnn2c(=O)c1[N+](=O)[O-] | 37.5 | 11.5 | > 200 | Active | – | – | – | – | –
10 | O=c1c([N+](=O)[O-])c(NCCc2ccc(Cl)cc2)nc2scnn12 | 87.4 | 48.8 | > 200 | – | 134 | 55.9 | 69.8 | Active | –
11 | CC(C)(C)Nc1nc2scnn2c(=O)c1[N+](=O)[O-] | 63.8 | 21.3 | 56 | Active | 181 | – | – | – | –
12 | O=c1c([N+](=O)[O-])c(NCCCCO)nc2scnn12 | 43.6 | 26.1 | > 200 | Active | – | – | – | – | –
13 | CC1(C)OCC(CNc2nc3scnn3c(=O)c2[N+](=O)[O-])O1 (stereo not drawn) | 71.4 | 42.1 | 48.1 | Active | 209 | – | – | – | –
14 | N#C[C@@H]1CCCN1C(=O)CNC12CC3CC(CC(O)(C3)C1)C2 | – | – | – | – | – | – | – | – | Active
15 | CC(=O)OCCCNc1nc2scnn2c(=O)c1[N+](=O)[O-] | 37.2 | 12.5 | 115 | Active | – | – | – | – | –
16 | CCCNc1nc2scnn2c(=O)c1[N+](=O)[O-] | 52.5 | 14.9 | 62 | Active | – | – | – | – | –
17 | O=c1c([N+](=O)[O-])c(NCCO)nc2scnn12 | 44.4 | 29.5 | 86.1 | Active | – | – | – | – | –
18 | CC(C)CNc1nc2scnn2c(=O)c1[N+](=O)[O-] | 73.9 | 23.1 | 37.2 | Active | 290 | – | – | – | –
19 | CCCCNc1nc2scnn2c(=O)c1[N+](=O)[O-] | 77 | 32.1 | 79.1 | Active | 204 | – | – | – | –
